What follows are molecules tested against T1, Nav1.7 (or SCN9A) channel (Homo sapiens, UniProt Q15858) (assay: Nav1.7 PatchXpress 7000 automated electrophysiology assay (HEK cells stably expressing hSCN9A)). Conditions: voltage-clamped at V1/2 of inactivation, read-out: Nav1.7 EIC50.
T1 construct: expressed in transfected cells
T1 sequence (Q15858 whole entry): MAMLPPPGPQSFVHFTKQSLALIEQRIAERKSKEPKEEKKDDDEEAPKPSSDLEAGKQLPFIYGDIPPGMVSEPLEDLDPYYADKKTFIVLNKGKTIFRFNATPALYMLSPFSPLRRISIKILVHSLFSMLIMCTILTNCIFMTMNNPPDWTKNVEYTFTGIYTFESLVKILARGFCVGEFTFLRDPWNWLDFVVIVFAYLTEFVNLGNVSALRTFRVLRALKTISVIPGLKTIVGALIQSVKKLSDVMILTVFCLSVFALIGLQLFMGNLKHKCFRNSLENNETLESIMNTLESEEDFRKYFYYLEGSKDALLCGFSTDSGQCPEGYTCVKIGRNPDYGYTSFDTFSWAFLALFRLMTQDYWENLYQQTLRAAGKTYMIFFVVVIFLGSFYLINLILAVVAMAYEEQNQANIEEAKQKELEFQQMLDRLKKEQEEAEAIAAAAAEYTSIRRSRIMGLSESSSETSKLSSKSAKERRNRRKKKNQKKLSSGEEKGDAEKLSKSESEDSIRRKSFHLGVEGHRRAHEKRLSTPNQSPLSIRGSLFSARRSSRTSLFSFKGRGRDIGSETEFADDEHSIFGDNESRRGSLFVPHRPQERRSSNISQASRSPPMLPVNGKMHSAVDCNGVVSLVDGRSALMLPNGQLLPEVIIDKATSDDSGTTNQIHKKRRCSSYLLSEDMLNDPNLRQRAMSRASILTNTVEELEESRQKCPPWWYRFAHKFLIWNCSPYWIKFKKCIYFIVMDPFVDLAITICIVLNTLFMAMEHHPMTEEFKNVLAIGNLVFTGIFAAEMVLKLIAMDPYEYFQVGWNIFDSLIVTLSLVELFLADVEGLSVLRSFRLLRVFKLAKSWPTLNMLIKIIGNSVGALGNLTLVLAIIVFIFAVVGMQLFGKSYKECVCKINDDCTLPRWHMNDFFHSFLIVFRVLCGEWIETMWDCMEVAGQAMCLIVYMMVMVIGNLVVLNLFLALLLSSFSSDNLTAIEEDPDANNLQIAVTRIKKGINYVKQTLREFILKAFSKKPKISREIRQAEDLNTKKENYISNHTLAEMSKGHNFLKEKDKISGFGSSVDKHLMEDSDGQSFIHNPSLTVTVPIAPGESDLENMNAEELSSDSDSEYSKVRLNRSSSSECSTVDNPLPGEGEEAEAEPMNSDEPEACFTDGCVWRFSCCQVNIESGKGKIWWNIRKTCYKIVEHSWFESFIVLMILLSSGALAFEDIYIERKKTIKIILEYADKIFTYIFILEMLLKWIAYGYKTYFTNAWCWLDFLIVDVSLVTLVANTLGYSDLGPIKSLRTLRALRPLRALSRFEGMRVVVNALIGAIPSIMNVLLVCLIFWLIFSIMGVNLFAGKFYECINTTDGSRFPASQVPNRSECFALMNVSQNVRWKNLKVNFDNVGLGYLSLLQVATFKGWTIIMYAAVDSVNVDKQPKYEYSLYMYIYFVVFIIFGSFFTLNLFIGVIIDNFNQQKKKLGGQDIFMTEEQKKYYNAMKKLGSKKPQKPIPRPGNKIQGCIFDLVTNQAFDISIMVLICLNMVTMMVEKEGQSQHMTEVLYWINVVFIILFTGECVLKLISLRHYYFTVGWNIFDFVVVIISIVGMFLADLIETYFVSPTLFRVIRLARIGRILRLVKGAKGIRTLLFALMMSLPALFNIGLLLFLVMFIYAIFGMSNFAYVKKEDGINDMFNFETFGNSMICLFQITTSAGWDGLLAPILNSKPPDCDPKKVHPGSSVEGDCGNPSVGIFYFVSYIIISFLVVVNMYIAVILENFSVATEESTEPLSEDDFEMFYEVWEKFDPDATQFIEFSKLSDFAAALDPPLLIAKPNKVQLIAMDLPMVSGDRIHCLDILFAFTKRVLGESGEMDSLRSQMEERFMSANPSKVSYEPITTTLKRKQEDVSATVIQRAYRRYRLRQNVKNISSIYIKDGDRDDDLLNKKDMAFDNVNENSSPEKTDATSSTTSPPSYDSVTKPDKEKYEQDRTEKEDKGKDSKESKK
Type: cell-based
Method: The ability of the compounds of formula (I) to block the Nav1.7 (or SCN9A) channel was measured using the assays described below.
Human Embryonic Kidney (HEK) cells were transfected with an hSCN9A construct using lipofectamine reagent (Invitrogen), using standard techniques. Cells stably expressing the hSCN9A constructs were identified by their resistance to G-418 (400 μg/ml). Clones were screened for expression using the whole-cell voltage-clamp technique.
HEK cells stably transfected with hSCN9A were maintained in DMEM medium supplemented with 10% heat-inactivated fetal bovine serum and 400 μg/ml G-418 in an incubator at 37° C. with a humidified atmosphere of 10% CO2. For HTS, cells were harvested from flasks by trypsinization and replated in an appropriate multi-well plate (typically 96 or 384 wells/plate) such that confluence would be achieved within 24 hours of plating. For electrophysiological studies, cells were removed from the culture flask by brief trypsinization and re-plated at low density onto glass cover slips. Cells were typically used for electrophysiological experiments within 24 to 72 hours after plating.
Cover slips containing HEK cells expressing hSCN9A were placed in a bath on the stage of an inverted microscope and perfused (approximately 1 ml/minutes) with extracellular solution of the following composition: 138 mM NaCl, 2 mM CaCl2, 5.4 mM KCl, 1 mM MgCl2, 10 mM glucose, and 10 mM HEPES, pH 7.4, with NaOH. […] The osmolarity of the extracellular and intracellular solutions was 300 mOsm/kg and 295 mOsm/kg, respectively. All recordings were made at room temperature (22-24° C.) using AXOPATCH 200B amplifiers and PCLAMP software (Axon Instruments, Burlingame, Calif.).
HEK cells stably transfected with hSCN9A were viewed under Hoffman contrast optics and placed in front of an array of flow pipes emitting either control or compound-containing extracellular solutions. All compounds were dissolved in dimethyl sulfoxide to make 10 mM stock solutions, which were then diluted into extracellular solution to attain the final concentrations desired. […] The voltage-dependence of inactivation was determined by applying a series of depolarizing prepulses (8 sec long in 10 mV increments) from a negative holding potential. The voltage was then immediately stepped to 0 mV to assess the magnitude of the sodium current. Currents elicited at 0 mV were plotted as a function of prepulse potential to allow estimation of the voltage at which 50% of the channels were inactivated (midpoint of inactivation or V1/2). Compounds were tested for their ability to inhibit hSCN9A sodium channels by activating the channel with a 20 msec voltage step to 0 mV following an 8 second conditioning prepulse to the empirically determined V1/2. Compound effect (% inhibition) was determined by difference in current amplitude before and after application of test compounds. For ease of comparison, “estimated IC-50” (EIC50) values were calculated from single point electrophysiology data by the following equation, (tested concentration, uM)×(100-% inhibition/% inhibition). Inhibition values <20% and >80% were excluded from the calculation.
Electrophysiological assays were conducted with PatchXpress 7000 hardware and associated software (Molecular Devices Corp). All assay buffers and solutions were identical to those used in conventional whole-cell voltage clamp experiments described above. hSCN9A cells were grown as above to 50%-80% confluency and harvested by trypsinization. Trypsinized cells were washed and resuspended in extracellular buffer at a concentration of 1×10^6 cells/ml. The onboard liquid handling facility of the PatchXpress was used for dispensing cells and application of test compounds. Determination of the voltage midpoint of inactivation was as described for conventional whole-cell recordings. Cells were then voltage-clamped to the empirically determined V1/2 and current was activated by a 20 msec voltage step to 0 mV. […]
In the case of `CS(=O)(=O)NC(=O)c1cc(F)c(Oc2ccc(Cl)c(C(F)(F)F)c2)cc1Cl` [Example 77, 2-chloro-4-(4-chloro-3-(trifluoromethyl)phenoxy)-5-fluoro-N-(methylsulfonyl)benzamide], the IC50 is reported as 0.53 µM.
`COc1c(C(=O)NS(C)(=O)=O)ccc(Oc2ccc(Cl)c(C(F)(F)F)c2)c1F` [Example 78, 4-(4-chloro-3-(trifluoromethyl)phenoxy)-3-fluoro-2-methoxy-N-(methylsulfonyl)benzamide] showed an IC50 of 4.2 µM.
In the case of `Cn1nccc1-c1cc(Cl)ccc1Oc1cc(F)c(C(=O)NS(C)(=O)=O)cc1Cl` [Example 80, 5-chloro-4-[4-chloro-2-(1-methyl-1H-pyrazol-5-yl)phenoxy]-2-fluoro-N-(methylsulfonyl)benzamide], the IC50 is reported as > 3 µM.
`Cc1cc(C(=O)NS(C)(=O)=O)ccc1Oc1ccc(Cl)c(Cl)c1` [Example 81, 4-(3,4-dichlorophenoxy)-3-methyl-N-(methylsulfonyl)benzamide] gave an IC50 of 0.23 µM.
`CS(=O)(=O)NC(=O)c1ccc(Oc2ccc(Cl)c(Cl)c2)c(Cl)c1` [Example 82, 3-chloro-4-(3,4-dichlorophenoxy)-N-(methylsulfonyl)benzamide] was tested, and the IC50 was 0.14 µM.
In the case of `Cn1nccc1-c1cc(Cl)ccc1Oc1ccc(C(=O)NS(C)(=O)=O)cc1` [Example 83, 4-(4-chloro-2-(1-methyl-1H-pyrazol-5-yl)phenoxy)-N-(methylsulfonyl)benzamide], the IC50 is reported as > 3 µM.
In the case of `COc1cc(C)ccc1Oc1cc(F)c(C(=O)NS(C)(=O)=O)cc1F` [Example 85, 2,5-difluoro-4-(2-methoxy-4-methylphenoxy)-N-(methylsulfonyl)benzamide], the IC50 is reported as > 1 µM.
With `COc1ccc(C)cc1Oc1cc(F)c(C(=O)NS(C)(=O)=O)cc1F` [Example 86, 2,5-difluoro-4-(2-methoxy-5-methylphenoxy)-N-(methylsulfonyl)benzamide] the IC50 was > 1 µM.
In the case of `CS(=O)(=O)NC(=O)c1cc(F)c(Oc2cccc(Cl)c2Cl)cc1F` [Example 87, 4-(2,3-dichlorophenoxy)-2,5-difluoro-N-(methylsulfonyl)benzamide], the IC50 is reported as 6.9 µM.
In the case of `COc1ccc(C#N)cc1Oc1cc(F)c(C(=O)NS(C)(=O)=O)cc1F` [Example 88, 4-(5-cyano-2-methoxyphenoxy)-2,5-difluoro-N-(methylsulfonyl)benzamide], the IC50 is reported as > 3 µM.
With `CS(=O)(=O)NC(=O)c1cc(F)c(Oc2cc(F)ccc2F)cc1F` [Example 89, 4-(2,5-difluorophenoxy)-2,5-difluoro-N-(methylsulfonyl)benzamide] the IC50 was > 3 µM.
In the case of `CC(C)Oc1ccccc1Oc1cc(F)c(C(=O)NS(C)(=O)=O)cc1F` [Example 90, 2,5-difluoro-4-(2-isopropoxyphenoxy)-N-(methylsulfonyl)benzamide], the IC50 is reported as > 0.3 µM.
`CS(=O)(=O)NC(=O)c1cc(F)c(Oc2c(F)cccc2Cl)cc1F` [Example 91, 4-(2-chloro-6-fluorophenoxy)-2,5-difluoro-N-(methylsulfonyl)benzamide] was tested, and the IC50 was > 3 µM.
For `COc1cc(F)cc(Oc2cc(F)c(C(=O)NS(C)(=O)=O)cc2F)c1` [Example 92, 2,5-difluoro-4-(3-fluoro-5-methoxyphenoxy)-N-(methylsulfonyl)benzamide], the IC50 was > 3 µM.
For `CC(C)c1ccccc1Oc1cc(F)c(C(=O)NS(C)(=O)=O)cc1F` [Example 93, 2,5-difluoro-4-(2-isopropylphenoxy)-N-(methylsulfonyl)benzamide], the IC50 was > 1 µM.
`CS(=O)(=O)NC(=O)c1cc(F)c(Oc2c(F)cc(F)cc2F)cc1F` [Example 94, 2,5-difluoro-N-(methylsulfonyl)-4-(2,4,6-trifluorophenoxy)benzamide] was tested, and the IC50 was > 3 µM.
In the case of `CS(=O)(=O)NC(=O)c1cc(F)c(Oc2ccc(C#N)c(Cl)c2)cc1F` [Example 95, 4-(3-chloro-4-cyanophenoxy)-2,5-difluoro-N-(methylsulfonyl)benzamide], the IC50 is reported as > 3 µM.
For `CS(=O)(=O)NC(=O)c1cc(F)c(Oc2c(F)cccc2F)cc1F` [Example 96, 4-(2,6-difluorophenoxy)-2,5-difluoro-N-(methylsulfonyl)benzamide], the IC50 was > 3 µM.
`CS(=O)(=O)NC(=O)c1cc(F)c(Oc2cc(F)cc(F)c2F)cc1F` [Example 97, 2,5-difluoro-N-(methylsulfonyl)-4-(2,3,5-trifluorophenoxy)benzamide] showed an IC50 of 7 µM.
In the case of `CCOc1ccccc1Oc1cc(F)c(C(=O)NS(C)(=O)=O)cc1F` [Example 98, 4-(2-ethoxyphenoxy)-2,5-difluoro-N-(methylsulfonyl)benzamide], the IC50 is reported as > 1 µM.
Molecule `CS(=O)(=O)NC(=O)c1cc(F)c(Oc2ccc(OC(F)(F)F)cc2)cc1F` [Example 100, 2,5-difluoro-N-(methylsulfonyl)-4-[4-(trifluoromethoxy)phenoxy]benzamide] has an IC50 of 1.1 µM.
Work on `CS(=O)(=O)NC(=O)c1cc(F)c(Oc2cc(Cl)cc(Cl)c2)cc1F` [Example 101, 4-(3,5-dichlorophenoxy)-2,5-difluoro-N-(methylsulfonyl)benzamide] yielded an IC50 of 1.5 µM.
Molecule `Cc1cc(Cl)ccc1Oc1cc(F)c(C(=O)NS(C)(=O)=O)cc1F` [Example 102, 4-(4-chloro-2-methylphenoxy)-2,5-difluoro-N-(methylsulfonyl)benzamide] has an IC50 of 3.7 µM.
With `CS(=O)(=O)NC(=O)c1cc(F)c(Oc2ccccc2OC(F)(F)F)cc1F` [Example 103, 2,5-difluoro-N-(methylsulfonyl)-4-[2-(trifluoromethoxy)phenoxy]benzamide] the IC50 was 3.2 µM.
`Cc1cccc(C)c1Oc1cc(F)c(C(=O)NS(C)(=O)=O)cc1F` [Example 104, 4-(2,6-dimethylphenoxy)-2,5-difluoro-N-(methylsulfonyl)benzamide] was tested, and the IC50 was > 3 µM.
In the case of `CS(=O)(=O)NC(=O)c1cc(F)c(Oc2cc(Cl)ccc2Cl)cc1F` [Example 105, 4-(2,5-dichlorophenoxy)-2,5-difluoro-N-(methylsulfonyl)benzamide], the IC50 is reported as > 3 µM.
`CS(=O)(=O)NC(=O)c1cc(F)c(Oc2ccccc2F)cc1F` [Example 107, 2,5-difluoro-4-(2-fluorophenoxy)-N-(methylsulfonyl)benzamide] was tested, and the IC50 was 9.3 µM.
With `COc1ccc(Cl)c(Oc2cc(F)c(C(=O)NS(C)(=O)=O)cc2F)c1` [Example 109, 4-(2-chloro-5-methoxyphenoxy)-2,5-difluoro-N-(methylsulfonyl)benzamide] the IC50 was > 1 µM.
With `Cc1ccc(Cl)c(Oc2cc(F)c(C(=O)NS(C)(=O)=O)cc2F)c1` [Example 110, 4-(2-chloro-5-methylphenoxy)-2,5-difluoro-N-(methylsulfonyl)benzamide] the IC50 was > 1 µM.
For `Cc1ccccc1Oc1cc(F)c(C(=O)NS(C)(=O)=O)cc1F` [Example 111, 2,5-difluoro-4-(2-methylphenoxy)-N-(methylsulfonyl)benzamide], the IC50 was > 3 µM.
With `Cc1cc(Oc2cc(F)c(C(=O)NS(C)(=O)=O)cc2F)cc(C)c1C#N` [Example 112, 4-(4-cyano-3,5-dimethylphenoxy)-2,5-difluoro-N-(methylsulfonyl)benzamide] the IC50 was > 3 µM.
`CS(=O)(=O)NC(=O)c1cc(F)c(Oc2ccccc2C(F)(F)F)cc1F` [Example 113, 2,5-difluoro-N-(methylsulfonyl)-4-[2-(trifluoromethyl)phenoxy]benzamide] was tested, and the IC50 was > 3 µM.
With `Cc1ccc(F)cc1Oc1cc(F)c(C(=O)NS(C)(=O)=O)cc1F` [Example 115, 2,5-difluoro-4-(5-fluoro-2-methylphenoxy)-N-(methylsulfonyl)benzamide] the IC50 was > 3 µM.
For `COc1ccc(Oc2cc(F)c(C(=O)NS(C)(=O)=O)cc2F)c(C#N)c1` [Example 116, 4-(2-cyano-4-methoxyphenoxy)-2,5-difluoro-N-(methylsulfonyl)benzamide], the IC50 was > 3 µM.
For `CS(=O)(=O)NC(=O)c1cc(F)c(Oc2ccc(F)cc2Cl)cc1F` [Example 120, 4-(2-chloro-4-fluorophenoxy)-2,5-difluoro-N-(methylsulfonyl)benzamide], the IC50 was > 3 µM.
